According to patent US20040152739A1, “Acyclic pyrazole compounds for the inhibition of mitogen activated protein kinase-activated protein kinase-2” (priority 2002, published 2004):
pIC50: −log10 of the molar value. Counter-ions that a name gives are not always drawn.

What follows are compounds tested against MK-2 (Homo sapiens, UniProt P49137) (assay: Determination of MK-2 IC50 (anion exchange resin capture assay, HSP-peptide phosphorylation)). Details: MK-2 Avg. IC50.
Format: biochemical
Description: The phosphorylation of HSP-peptide ([sequence]) by MAPKAPK2 was measured using an anion exchange resin capture assay method. […] The reaction was terminated and [γ^33P]ATP was removed from solution by the addition of 150 μl of AG 1×8 ion exchange resin in 900 mM sodium formate pH 3.0. A 50 μl aliquot of head volume was removed from the quenched reaction mixture and added to a 96-well plate, 150 μl of Microscint-40 (Packard) was added and the amount of phosphorylated-peptide was determined. Allow the Microscint to sit in the plates for 60 minutes prior to counting.
Compounds are evaluated as potential inhibitors of the MK2 kinase by measuring their effects on MK2 phosphorylation of the peptide substrate. Compounds may be screened initially at two concentrations prior to determination of IC50 values. Screening results are expressed as percent inhibition at the concentrations of compound tested. For IC50 value determinations, compounds are tested at six concentrations in ten-fold serial dilutions with each concentration tested in triplicate. Results are expressed as IC50 values in micromolar. The assay is performed at a final concentration of 2% DMSO.
Compounds are evaluated as potential inhibitors of the MK-2 kinase by measuring their effects on MK-2 phosphorylation of the peptide substrate. Compounds may be screened initially at two concentrations prior to determination of IC50 values. Screening results are expressed as percent inhibition at the concentrations of compound tested. For IC50 value determinations, compounds are tested at six concentrations in ten-fold serial dilutions with each concentration tested in triplicate. Results are expressed as IC50 values in micromolar. The assay is performed at a final concentration of 2% DMSO.

Sequence of MK-2 (P49137 whole entry, species assumed): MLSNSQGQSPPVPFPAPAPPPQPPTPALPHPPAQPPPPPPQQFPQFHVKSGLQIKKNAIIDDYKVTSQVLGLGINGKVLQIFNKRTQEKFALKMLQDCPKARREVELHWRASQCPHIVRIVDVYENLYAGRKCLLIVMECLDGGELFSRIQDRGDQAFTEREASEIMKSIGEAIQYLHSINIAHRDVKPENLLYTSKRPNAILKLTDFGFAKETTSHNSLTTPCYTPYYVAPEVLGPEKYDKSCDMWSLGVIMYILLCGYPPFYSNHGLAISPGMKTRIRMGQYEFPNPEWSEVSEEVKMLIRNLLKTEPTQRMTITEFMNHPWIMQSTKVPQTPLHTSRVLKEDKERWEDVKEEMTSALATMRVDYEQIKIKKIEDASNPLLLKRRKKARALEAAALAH

Structure (SMILES) | pIC50
CCOC(=O)c1cc(-c2ccnc(-c3ccc(O[Si](C)(C)C(C)(C)C)cc3)c2)nn1CCN [Example 136, ethyl 1-(2-aminoethyl)-3-[2-(4-{[tert-butyl(dimethyl)silyl]oxy}phenyl)pyridin-4-yl]-1H-pyrazole-5-carboxylate dihydrochloride] | 4.55

Same assay, conditions: read-out: MK-2 Avg. IC50

Structure (SMILES) | pIC50
N#Cc1cc(-c2cc3n(n2)CCNC3=O)ccn1 [Example 126, 4-(4-oxo-4,5,6,7-tetrahydropyrazolo[1,5-a]pyrazin-2-yl)pyridine-2-carbonitrile] | 4.86
NCCCn1nc(-c2ccc(O)cc2)cc1C(=O)O [Example 119, 1-(3-aminopropyl)-3-(4-hydroxyphenyl)-1H-pyrazole-5-carboxylic acid dihydrochloride] | 5.09
O=C1NCCn2nc(-c3ccnc(/C=C/c4cccnc4)c3)cc21 [Example 18, dihydrochloride] | 6.67
NCCCn1nc(-c2ccnc(-c3cccc([N+](=O)[O-])c3)c2)cc1C(N)=O [Example 69] | 5.88
O=C1NCCCn2nc(-c3ccnc(-n4cccn4)c3)cc21 [Example 130, 2-[2-(1H-pyrazol-1-yl)pyridin-4-yl]-5,6,7,8-tetrahydro-4H-pyrazolo[1,5-a][1,4]diazepin-4-one hydrochloride] | 4.79
O=C1NCCn2nc(-c3ccnc(-c4ccc(Cl)s4)c3)cc21 [Example 29] | 6.35
CCOC(=O)c1cc(-c2ccnc(-c3cccc([N+](=O)[O-])c3)c2)nn1CCCN [Example 137, ethyl 1-(3-aminopropyl)-3-[2-(3-nitrophenyl)pyridin-4-yl]-1H-pyrazole-5-carboxylate dihydrochloride] | 4.50
COc1ccc(-c2cc(-c3cc(C(=O)O)n(CCN)n3)ccn2)cc1 [Example 12, trifluoroacetate] | 6.77
CCOC(=O)N1CCN(CCOc2cccc(-c3cc(-c4cc5n(n4)CCNC5=O)ccn3)c2)CC1 [Example 95, trifluoroacetate] | 5.52
CCOC(=O)c1cc(-c2ccnc(-c3cccc(O)c3)c2)nn1CCN [Example 108, ethyl 1-(2-aminoethyl)-3-[2-(3-hydroxyphenyl)pyridin-4-yl]-1H-pyrazole-5-carboxylate dihydrochloride] | 5.30
O=C1NCCn2nc(-c3ccnc(-c4ccsc4)c3)cc21 [Example 75] | 5.81
Cc1cn(-c2cc(-c3cc4n(n3)CCCNC4=O)ccn2)cn1 [Example 90] | 5.56
O=C1NCCn2nc(-c3ccnc(-c4ccc(OC(F)(F)F)cc4)c3)cc21 [Example 149, 2-{2-[4-(trifluoromethoxy)phenyl]pyridin-4-yl}-6,7-dihydropyrazolo[1,5-a]pyrazin-4(5H)-one trifluoroacetate] | 3.88
O=C1NCCCn2nc(-c3ccnc(-n4cccc4)c3)cc21 [Example 123, 2-[2-(1H-pyrrol-1-yl)pyridin-4-yl]-5,6,7,8-tetrahydro-4H-pyrazolo[1,5-a][1,4]diazepin-4-one trifluoroacetate] | 4.97
O=C1NCCn2nc(-c3ccnc(-c4ccc(CN5CCOCC5)cc4)c3)cc21 [Example 94, bis(trifluoroacetate)] | 5.52
NCCCn1nc(-c2ccnc(-c3cccc([N+](=O)[O-])c3)c2)cc1C(=O)O [Example 2, dihydrochloride] | 7.40
O=C1NCCn2nc(-c3ccnc(-n4ccnc4)c3)cc21 [Example 70, hydrochloride] | 5.87
O=C(O)c1cc(-c2ccnc(/C=C/c3ccccc3)c2)nn1CCCNCCc1ccc(Br)cc1 [Example 25, trifluoroacetate] | 6.50
CCCn1nc(-c2ccnc(-n3ccnc3)c2)cc1C(=O)O [Example 127, 3-[2-(1H-imidazol-1-yl)pyridin-4-yl]-1-propyl-1H-pyrazole-5-carboxylic acid] | 4.84
CCOC(=O)c1cc(-c2ccnc(-c3cccc(OC)c3)c2)nn1CCN [Example 110, ethyl 1-(2-aminoethyl)-3-[2-(3-methoxyphenyl)pyridin-4-yl]-1H-pyrazole-5-carboxylate dihydrochloride] | 5.28
O=C1NCCCn2nc(-c3ccc(O)cc3)cc21 [Example 147, 2-(4-hydroxyphenyl)-5,6,7,8-tetrahydro-4H-pyrazolo[1,5-a][1,4]diazepin-4-one] | 3.93
O=C1NCCn2nc(-c3ccnc(-c4ccc5c(c4)CCCN5)c3)cc21 [Example 49, dihydrochloride] | 6.08
O=C1NCCCn2nc(-c3ccnc(Cl)c3)cc21 [Example 145, 2-(2-chloropyridin-4-yl)-5,6,7,8-tetrahydro-4H-pyrazolo[1,5-a][1,4]diazepin-4-one] | 4.09
NCCn1nc(-c2ccnc(-c3ccc(CO)cc3)c2)cc1C(=O)NO [Example 118, 1-(2-aminoethy)-N-hydroxy-3-{2-[4-(hydroxymethyl)phenyl]pyridin-4-yl}-1H-pyrazole-5-carboxamide trifluoroacetate] | 5.10
COc1ccc(-c2cc(-c3cc(C(=O)O)n(CCCN)n3)ccn2)cc1 [Example 15, trifluoroacetate] | 6.71
O=C1NCCn2nc(-c3ccnc(-c4cccc(Cl)c4)c3)c(Cl)c21 [Example 61, 3-chloro-2-[2-(3-chlorophenyl)pyridin-4-yl]-6,7-dihydropyrazolo[1,5-a]pyrazin-4(5H)-one] | 5.95
O=C1NCCn2nc(-c3ccnc(Cl)c3)cc21 [Example 140, 2-(2-chloropyridin-4-yl)-6,7-dihydropyrazolo[1,5-a]pyrazin-4(5H)-one] | 4.35
CN(C)c1ccc(-c2cc(-c3cc(C(=O)O)n(CCN)n3)ccn2)cc1 [Example 10] | 6.93
COc1ccc(-c2cc(C(=O)O)n(CCCNC(=O)OC(C)(C)C)n2)cc1 [Example 151, 1-{3-[(tert-butoxycarbonyl)amino]propyl}-3-(4-methoxyphenyl)-1H-pyrazole-5-carboxylic acid] | 3.81

Next, values leading:

pIC50 | Structure (SMILES)
6.20 | O=C1NCCn2nc(-c3ccnc(-c4cccc(Cl)c4)c3)cc21 [Example 44, trifluoroacetate]
7.57 | NCCn1nc(-c2ccnc(-c3cnc4ccccc4c3)c2)cc1C(=O)O [Example 1, dihydrochloride]
6.03 | O=C1NCCn2nc(-c3ccnc(-c4ccc5cc[nH]c5c4)c3)cc21 [Example 55, hydrochloride]
6.67 | O=C1NCCn2nc(-c3ccnc(-c4cnc5ccccc5c4)c3)cc21 [Example 19, dihydrochloride]
6.21 | O=C1NCCn2nc(-c3ccnc(-c4ccc(O)cc4)c3)cc21 [Example 42, trifluoroacetate]
5.55 | Cc1cc2cc(-c3cc(-c4cc5n(n4)CCNC5=O)ccn3)ccc2[nH]1 [Example 92]
7.16 | NCCCn1nc(-c2ccnc(-c3cnc4ccccc4c3)c2)cc1C(=O)O [Example 7]
5.53 | O=C1NCCn2nc(-c3ccnc(-c4ccccc4F)c3)cc21 [Example 93]
5.49 | NCc1cccc(-c2cc(-c3cc4n(n3)CCNC4=O)ccn2)c1 [Example 97, trifluoroacetate]
5.24 | O=C1NCCn2nc(-c3ccnc(-c4cccc(CNCCO)c4)c3)cc21 [Example 114, 2-[2-(3-{[(2-hydroxyethyl)amino]methyl}phenyl)pyridin-4-yl]-6,7-dihydropyrazolo[1,5-a]pyrazin-4(5H)-one]
5.34 | O=C1NCCCn2nc(-c3ccnc(-c4cccc(CO)c4)c3)cc21 [Example 106, 2-{2-[3-(hydroxymethyl)phenyl]pyridin-4-yl}-5,6,7,8-tetrahydro-4H-pyrazolo[1,5-a][1,4]diazepin-4-one trifluoroacetate]
6.09 | CS(=O)(=O)c1ccc(-c2cc(-c3cc4n(n3)CCNC4=O)ccn2)cc1 [Example 48, dihydrochloride]
5.20 | CC(C)NCc1cccc(-c2cc(-c3cc4n(n3)CCNC4=O)ccn2)c1 [Example 115, 2-(2-{3-[(isopropylamino)methyl]phenyl}pyridin-4-yl)-6,7-dihydropyrazolo[1,5-a]pyrazin-4(5H)-one]
5.70 | O=C1NCCn2nc(-c3ccnc(-c4cncnc4)c3)cc21 [Example 81, hydrochloride]
5.68 | CS(=O)(=O)c1cccc(-c2cc(-c3cc4n(n3)CCNC4=O)ccn2)c1 [Example 83, trifluoroacetate]
6.00 | NC(=O)C1Cn2nc(-c3ccnc(-c4cnc5ccccc5c4)c3)cc2C(=O)N1 (centres unmarked) [Example 57, trifluoroacetate]
5.38 | O=C(O)CCc1ccc(-c2cc(-c3cc4n(n3)CCNC4=O)ccn2)cc1 [Example 102, 3-{4-[4-(4-oxo-4,5,6,7-tetrahydropyrazolo[1,5-a]pyrazin-2-yl)pyridin-2-yl]phenyl}propanoic acid]
6.24 | O=C1NCCCn2nc(-c3ccnc(-c4cnc5ccccc5c4)c3)cc21 [Example 39, trifluoroacetate]
6.03 | O=C1NCCn2nc(-c3ccnc(-c4ccc(CO)cc4)c3)cc21 [Example 54, trifluoroacetate]
6.50 | COc1ccc(-c2cc(-c3cc4n(n3)CCNC4=O)ccn2)cc1 [Example 26, dihydrochloride]
4.81 | CN(C)Cc1cccc(-c2cc(-c3cc4n(n3)CCNC4=O)ccn2)c1 [Example 128, 2-(2-{3-[(dimethylamino)methyl]phenyl}pyridin-4-yl)-6,7-dihydropyrazolo[1,5-a]pyrazin-4(5H)-one trifluoroacetate]
5.64 | CS(=O)(=O)Nc1cccc(-c2cc(-c3cc4n(n3)CCNC4=O)ccn2)c1 [Example 85, dihydrochloride]
6.03 | O=Cc1c[nH]c2ccc(-c3cc(-c4cc5n(n4)CCNC5=O)ccn3)cc12 [Example 53, hydrochloride]
4.97 | NCCCn1nc(-c2ccnc(-c3cnc4ccccc4c3)c2)cc1C(N)=O [Example 124, 1-(3-aminopropyl)-3-(2-quinolin-3-ylpyridin-4-yl)-1H-pyrazole-5-carboxamide dihydrochloride]
6.77 | O=C1NCCn2nc(-c3ccnc(-c4cccc([N+](=O)[O-])c4)c3)cc21 [Example 13, dihydrochloride]
5.58 | O=C1NCCn2nc(-c3ccnc(-c4ccc(F)cc4F)c3)cc21 [Example 89, dihydrochloride]
